# “Also recorded” adds a separate entry of the source.
# System: human recombinant ALDH3A1 (6-His)
# Assay: Phage display panning, Ph.D.-12 random 12-mer library (3 rounds, clones sequenced)
# Format: binding
# Details: for Frequency of appearance: clones out of 33 sequenced after third panning round, 75 μg ALDH3A1 coated, Ph.D.-12 library
# Experimental: For phage titration, 50 μL of an overnight E. coli ER2738 (host strain) culture were used for the inoculation of 5 mL Luria Broth (LB) which was subsequently cultivated at 37°C (220 rpm). When E. coli ER2738 culture reached an OD600 value of approximately 0.5, 200 μL of the culture were mixed with 10 μL of the phage solution and the mixture was vortexed and incubated for 5 min at room temperature (RT). Subsequently, it was diluted in 3 mL of warm agarose top (0.7% agarose, 0.5% yeast extract, 1% Bacto-Tryptone, 0.5% NaCl, 0.1% MgCl2•H2O) and poured in LB/IPTG/Xgal agar plates (LB agar plates with 0.004% X-gal 0.005% IPTG). Plates were incubated overnight at 37°C.
# The procedure was initiated with the amplification of the phage plaques as described in 2.5 with the exception that after the first centrifugation, 500 μL of the supernatant was transferred into a fresh tube. Then, 200 μL PEG/NaCl were added and the sample was mixed and incubated at RT for 10 min. The sample was subsequently centrifuged at 14,000 rpm, for 10 min at 4°C and the supernatant was removed. After the second round of centrifugation under the same conditions, the remaining supernatant was carefully discarded. Pellet was then re-suspended in 100 μL of iodine buffer (4M NaI, 1 mM EDTA, 10 mM Tris-HCl, pH 8.0) and 250 μL of ethanol were subsequently added. The mixture was incubated at RT for 10 min, centrifuged at 14,000 rpm for 10 min at RT, and the supernatant was discarded. Finally, 70% of pure ethanol was used for DNA wash and the pellet was suspended in 30 μL sterilized ddH2O. Samples were stored at −20°C until needed. Isolated M13 phage ssDNA (∼120 ng) was subjected to agarose gel electrophoresis, and the residual volume of the ssDNA was sent for single extension sequencing from the primer 5′-CCCTCATAGTTAGCGTAACG-3’. Sequencing was conducted by VBC biotech (Vienna, Austria). The resulting sequences were used for the estimation of the respective 12-mer peptides. […]
sequence,measurement,setting,value
"WPTYVSPFRSPP [P1, …, prevailing 12-mer phage display peptide, synthesised by Genecust]",Frequency of appearance,,30 out of 33
same,Frequency of appearance,listed as WPTYVSPFRSPP,30 out of the 33
same,Strength of interaction with recombinant hALDH3A1,inferred from frequency of appearance,strongest and most specific interaction with the recombinant hALDH3A1; also recorded: appeared to bind most efficiently to hALDH3A1

# Source: article PMC10067601, “Identification of a peptide ligand for human ALDH3A1 through peptide phage display: Prediction and characterization of protein interaction sites and inhibition of ALDH3A1 enzymatic activity” (Frontiers in Molecular Biosciences, 2023)
